Measurements taken from PubChem BioAssay AID330 (DTP/NCI, 2004).
Several values for one entry are separate records, joined by “and”; a condition that tells them apart may be missing. Equal values may be shown once. Inconclusive results and toxic doses are left out. Rule for the calls: active = survival T/C of 150% or more; inactive = T/C below 125% in these data.

System: P388 leukemia ip, CD2F1 mice, survival T/C
Test: NCI In Vivo Anticancer Drug Screen. Data for tumor model P388 Leukemia (intraperitoneal) in CD2F1 (CDF1) mice
Details: endpoint: median survival time, higher = longer survival
In short: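 Mice carrying the transplanted tumor received test compound or vehicle. Survival was recorded in each group, and the value is the treated-group measurement divided by that of the vehicle-treated control group.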

[1] = dose: 60.0 mg/kg/injection, schedule: Q01DX005 (ip), vehicle: saline with Tween-80
[2] = dose: 120.0 mg/kg/injection, schedule: Q01DX005 (ip), vehicle: saline with Tween-80
[3] = dose: 240.0 mg/kg/injection, schedule: Q01DX005 (ip), vehicle: saline with Tween-80
[4] = dose: 50.0 mg/kg/injection, schedule: Q01DX009 (ip), vehicle: Klucel (hydroxypropylcellulose) (HPC)
[5] = dose: 100.0 mg/kg/injection, schedule: Q01DX009 (ip), vehicle: Klucel (hydroxypropylcellulose) (HPC)
[6] = dose: 200.0 mg/kg/injection, schedule: Q01DX009 (ip), vehicle: Klucel (hydroxypropylcellulose) (HPC)
[7] = dose: 50.0 mg/kg/injection, schedule: Q01DX009 (ip), vehicle: saline with Tween-80
[8] = dose: 100.0 mg/kg/injection, schedule: Q01DX009 (ip), vehicle: saline with Tween-80
[9] = dose: 50.0 mg/kg/injection, schedule: Q01DX005 (ip), vehicle: saline with Tween-80
[10] = dose: 100.0 mg/kg/injection, schedule: Q01DX005 (ip), vehicle: saline with Tween-80
[11] = dose: 200.0 mg/kg/injection, schedule: Q01DX005 (ip), vehicle: saline with Tween-80

Measured: T/C

O=C(Nc1ccc(C(=O)O)c(O)c1)Nc1ccccc1C(F)(F)F
inactive: [1] 103 % of control | [2] 90 % of control | [3] 103 % of control

C=C1CC/C=C(\C)CCC2C1CC2(C)C (stereo not drawn)
inactive: dose: 12.5 mg/kg/injection, schedule: Q01DX009 (ip), vehicle: Klucel (hydroxypropylcellulose) (HPC) 100 % of control | dose: 25.0 mg/kg/injection, schedule: Q01DX009 (ip), vehicle: Klucel (hydroxypropylcellulose) (HPC) 100 % of control | [4] 102 % of control | [5] 105 % of control | [6] 113 % of control

CSC(C(C)=O)c1ccccc1 (stereo not drawn)
inactive: dose: 25.0 mg/kg/injection, schedule: Q01DX009 (ip), vehicle: saline with Tween-80 100 % of control | [7] 100 % of control | [8] 104 % of control

O=C(O)[C@@H]1c2ccccc2-c2ccccc2[C@H]1C(=O)O
inactive: [9] 98 % of control | [10] 95 % of control | [11] 107 % of control

c1ccc2c(NCCCNCCCNc3c4ccccc4nc4ccccc34)c3ccccc3nc2c1
inactive: dose: 0.63 mg/kg/injection, schedule: Q01DX009 (ip), vehicle: other 112 % of control | dose: 1.25 mg/kg/injection, schedule: Q01DX009 (ip), vehicle: other 102 % of control and 118 % of control | dose: 2.5 mg/kg/injection, schedule: Q01DX009 (ip), vehicle: other 112 % of control | dose: 5.0 mg/kg/injection, schedule: Q01DX009 (ip), vehicle: other 118 % of control | dose: 10.0 mg/kg/injection, schedule: Q01DX009 (ip), vehicle: other 110 % of control

C=C1C(=O)OC2C1C(OC(=O)/C(C)=C/C)CC1(COC(O)C1)C2C(=C)C (stereo not drawn)
inactive: dose: 2.5 mg/kg/injection, schedule: Q01DX009 (ip), vehicle: saline + alcohol 107 % of control | dose: 5.0 mg/kg/injection, schedule: Q01DX009 (ip), vehicle: saline + alcohol 118 % of control | dose: 10.0 mg/kg/injection, schedule: Q01DX009 (ip), vehicle: saline + alcohol 109 % of control | dose: 20.0 mg/kg/injection, schedule: Q01DX009 (ip), vehicle: saline + alcohol 100 % of control

CN(C=O)S(C)(=O)=O
inactive: [7] 100 % of control | [8] 100 % of control | dose: 200.0 mg/kg/injection, schedule: Q01DX009 (ip), vehicle: saline with Tween-80 100 % of control

CC(C)CC(N)C(=O)O (stereo not drawn)
inactive: [4] 105 % of control | [5] 105 % of control | [6] 94 % of control

N#Cc1nnc2cccc(Cl)n12
inactive: dose: 25.0 mg/kg/injection, schedule: Q01DX001 (ip), vehicle: Klucel (hydroxypropylcellulose) (HPC) 96 % of control | dose: 50.0 mg/kg/injection, schedule: Q01DX001 (ip), vehicle: Klucel (hydroxypropylcellulose) (HPC) 95 % of control | dose: 100.0 mg/kg/injection, schedule: Q01DX001 (ip), vehicle: Klucel (hydroxypropylcellulose) (HPC) 97 % of control

COc1ccc(/C=N/Nc2nnc3c(n2)[nH]c2ccc(Br)cc23)cc1
inactive: dose: 100.0 mg/kg/injection, schedule: Q04DX002 (ip), vehicle: saline with Tween-80 100 % of control | dose: 200.0 mg/kg/injection, schedule: Q04DX002 (ip), vehicle: saline with Tween-80 109 % of control | dose: 400.0 mg/kg/injection, schedule: Q04DX002 (ip), vehicle: saline with Tween-80 110 % of control

Fc1ccc(CSC(=S)Nc2ccc(I)cc2)cc1
inactive: dose: 50.0 mg/kg/injection, schedule: Q01DX009 (ip), vehicle: suspension in saline 97 % of control | dose: 100.0 mg/kg/injection, schedule: Q01DX009 (ip), vehicle: suspension in saline 93 % of control | dose: 200.0 mg/kg/injection, schedule: Q01DX009 (ip), vehicle: suspension in saline 103 % of control

Cc1ccc(CNc2cc(C)ccn2)cc1
inactive: dose: 50.0 mg/kg/injection, schedule: Q01DX009 (ip), vehicle: other 109 % of control | dose: 100.0 mg/kg/injection, schedule: Q01DX009 (ip), vehicle: other 109 % of control

CC(=O)C1C(=O)C(=O)N(c2ccc(Cl)cc2)C1=O (stereo not drawn)
inactive: [4] 101 % of control | [5] 96 % of control | [6] 104 % of control

COc1ccc(C2C3C(=O)OCCOC(=O)C3C2c2ccc(OC)c(OC)c2)cc1OC (stereo not drawn)
inactive: [9] 99 % of control | [10] 104 % of control | [11] 99 % of control

O=S(=O)(NCCSSCCNS(=O)(=O)c1ccc(Cl)cc1)c1ccc(Cl)cc1
inactive: [4] 92 % of control | [5] 91 % of control | [6] 88 % of control

CCOC(=O)C1=C(O)c2ccccc2S(=O)(=O)N1C (tested in a mixture with another compound)
inactive: [1] 98 % of control | [2] 107 % of control | [3] 97 % of control

COC(=O)c1nnc(C(=O)OC)c2c1c1ccccc1n2C(=O)c1ccccc1
inactive: [1] 105 % of control | [2] 93 % of control | [3] 91 % of control

Cc1csc(/N=C2\N/C(=N\c3nc(C)cs3)c3ccccc32)n1
inactive: [7] 88 % of control | [8] 86 % of control

C=C(C)C(=O)O[C@H]1C[C@@]2(C)OC(=CC2=O)/C(CO)=C\[C@H]2OC(=O)C(=C)[C@H]12
inactive: dose: 1.56 mg/kg/injection, schedule: Q01DX009 (ip), vehicle: Klucel (hydroxypropylcellulose) (HPC) 108 % of control | dose: 3.13 mg/kg/injection, schedule: Q01DX009 (ip), vehicle: Klucel (hydroxypropylcellulose) (HPC) 106 % of control | dose: 6.25 mg/kg/injection, schedule: Q01DX009 (ip), vehicle: Klucel (hydroxypropylcellulose) (HPC) 117 % of control

O=S(=O)(c1cccc(C(F)(F)F)c1)N(CCCCN(S(=O)(=O)c1cccc(C(F)(F)F)c1)S(=O)(=O)c1cccc(C(F)(F)F)c1)S(=O)(=O)c1cccc(C(F)(F)F)c1
inactive: [1] 97 % of control | [2] 93 % of control | [3] 90 % of control

O=C1c2ccccc2C(=O)N1c1ccc(Cl)cc1[N+](=O)[O-]
inactive: dose: 100.0 mg/kg/injection, schedule: Q04DX002 (ip), vehicle: saline 99 % of control | dose: 200.0 mg/kg/injection, schedule: Q04DX002 (ip), vehicle: saline 99 % of control | dose: 400.0 mg/kg/injection, schedule: Q04DX002 (ip), vehicle: saline 97 % of control

Cc1nc2ccccc2c(=O)n1-c1ccc(-c2n[nH]c(=S)n2-c2ccccc2)cc1
inactive: dose: 50.0 mg/kg/injection, schedule: Q01DX005 (ip), vehicle: Klucel (hydroxypropylcellulose) (HPC) 105 % of control | dose: 100.0 mg/kg/injection, schedule: Q01DX005 (ip), vehicle: Klucel (hydroxypropylcellulose) (HPC) 110 % of control | dose: 200.0 mg/kg/injection, schedule: Q01DX005 (ip), vehicle: Klucel (hydroxypropylcellulose) (HPC) 102 % of control

CCC(=NCCCCCCN=C(CC)c1cc(C)cc([N+](=O)[O-])c1O)c1cc(C)cc([N+](=O)[O-])c1O.[Fe]
inactive: [1] 90 % of control | [2] 86 % of control | [3] 94 % of control

O=C(/C=C/c1c(-c2ccccc2)[nH]c2ccccc12)c1ccccc1[N+](=O)[O-]
inactive: [1] 95 % of control | [2] 96 % of control | [3] 92 % of control

O=S(=O)(Nc1cccc(Cl)c1)c1ccc(F)cc1
inactive: [1] 96 % of control | [2] 99 % of control | [3] 101 % of control

O=c1c2ccccc2nnn1Cc1ccco1
inactive: dose: 1.25 mg/kg/injection, schedule: Q01DX005 (ip), vehicle: saline with Tween-80 100 % of control | dose: 12.5 mg/kg/injection, schedule: Q01DX005 (ip), vehicle: saline with Tween-80 92 % of control | dose: 25.0 mg/kg/injection, schedule: Q01DX005 (ip), vehicle: saline with Tween-80 100 % of control and 90 % of control | [9] 104 % of control and 90 % of control | [10] 92 % of control and 93 % of control

CC(NC(=O)OC(C)(C)C)C(=O)ON1C(=O)CCC1=O (stereo not drawn)
inactive: [9] 108 % of control | [10] 114 % of control | [11] 104 % of control

Cc1[nH]nc2c1NC(=O)OC2C (stereo not drawn)
inactive: [9] 108 % of control | [10] 99 % of control | [11] 101 % of control

CCC(NC(C)C)C(O)c1ccc(O)c2[nH]c(=O)ccc12 (stereo not drawn)
inactive: [4] 104 % of control | [5] 99 % of control | [6] 96 % of control

C=C(C)C1CC=C(C)C(CCC2C(=C)CCC3C(C)(C)C(OC4OC(CO)C(O)C(O)C4NC(C)=O)CCC23C)C1(C)CCC(=O)O (stereo not drawn)
inactive: dose: 35.75 mg/kg/injection, schedule: Q01DX005 (ip), vehicle: Klucel (hydroxypropylcellulose) (HPC) 91 % of control | dose: 71.5 mg/kg/injection, schedule: Q01DX005 (ip), vehicle: Klucel (hydroxypropylcellulose) (HPC) 87 % of control | dose: 143.0 mg/kg/injection, schedule: Q01DX005 (ip), vehicle: Klucel (hydroxypropylcellulose) (HPC) 97 % of control

O=C(O)CCC(=O)c1ccc(Br)cc1
inactive: dose: 100.0 mg/kg/injection, schedule: Q04DX003 (ip), vehicle: saline with Tween-80 109 % of control | dose: 200.0 mg/kg/injection, schedule: Q04DX003 (ip), vehicle: saline with Tween-80 104 % of control | dose: 400.0 mg/kg/injection, schedule: Q04DX003 (ip), vehicle: saline with Tween-80 109 % of control
